In patent publication US9918934B2, “Linker-based lecithin microemulsion delivery vehicles” (priority 2006, dated 2018):

Key:
dorsal pig ear skin = type: in vitro ADME
Protocol: The model skin was placed in a commercial MATTEK™ Permeation Device (MPD). A test formulation (0.4 mL) was applied in the donor compartment. […] At predetermined time, the receiver solution was withdrawn completely from the receptor compartment and was immediately replaced by fresh buffer solution. Sink conditions were maintained at all times. At 5.5 h, the experiment was terminated. All permeation experiments were conducted in triplicate at room temperature.
Receiver solutions were diluted with methanol and the absorbance at 230 nm were measured.
The cumulative lidocaine amount permeated across the skin was plotted as a function of time (h), and average steady-state flux (J, μg/h/cm2) was calculated by dividing the slope from the linear part of the curve by the area of the exposed skin surface (0.256 cm2).
To measure the concentration of lidocaine in pig ear skin, the tissue was removed from the MATTEK™ permeation device, rinse with PBS solution and blotted with lint-free paper tissue to remove any excess of fluid. The tissue was immersed in 2 mL of methanol for a period of 24 hr. After that time, the concentration of lidocaine was measured using the HPLC method described above. The mass of lidocaine extracted is divided by the volume of the tissue (tissue thickness*cross sectional area) to obtain the equivalent lidocaine concentration in the skin. The skin permeability is calculated by dividing the transdermal flux by the lidocaine skin concentration.
The formulation LO-32 (a Type II lecithin linker microemulsion) was reformulated using lower lecithin concentration. The transdermal flux through pig ear dorsal skin was also evaluated for selected formulations, and following the procedures described above. […] (Where: (a) is lecithin; (b) is sorbitan monooleate; (c) is octanoic acid; (d) is sodium octanoate; (e) is water; (f) is lidocaine; (g) is isopropyl myristate; and (v) is microemulsion volume. Concentrations are expressed on a weight percentage basis (w/w).)

[1] = system: reconstructed human skin EpiDerm™ EPI-200; type: in vitro ADME
Protocol: Lidocaine permeability was measured in vitro through reconstructed human skin EpiDerm™ EPI-200 and dorsal pig ear skin using selected formulations of examples 1 through 3. The model skin was placed in a commercial MATTEK™ Permeation Device (MPD). A test formulation (0.4 mL) was applied in the donor compartment. The receptor compartment was filled with 5 mL of PBS (0.01M phosphate, 0.137M NaCl, pH 7.4). At predetermined time, the receiver solution was withdrawn completely from the receptor compartment and was immediately replaced by fresh buffer solution. Sink conditions were maintained at all times. At 5.5 h, the experiment was terminated. All permeation experiments were conducted in triplicate at room temperature.
Lidocaine in receiver solutions was assayed by a UV spectrophotometer ([…] PLUS™, Amersham Pharmacia Biotech, U.S.A.). Receiver solutions were diluted with methanol and the absorbance at 230 nm were measured. A linear calibration curve for lidocaine was obtained at 230 nm in a range of 0-100 μg/mL with a linearity of 0.999.
The cumulative lidocaine amount permeated across the skin was plotted as a function of time (h), and average steady-state flux (J, μg/h/cm2) was calculated by dividing the slope from the linear part of the curve by the area of the exposed skin surface (0.256 cm2). […]

Substance | Pig ear skin Flux (lidocaine steady-state transdermal flux) (dorsal pig ear skin) | Pig ear skin Lidocaine in skin (dorsal pig ear skin) [µg/mL] | Pig skin permeability (dorsal pig ear skin) | MatTek Flux (lidocaine steady-state transdermal flux) [1] | Flux (lidocaine transdermal flux through excised pig ear skin) (dorsal pig ear skin)
Pentanol | 130 +/− 20 μg/hr-cm^2 | 5800 ± 200 | 220 +/− 20 μm/hr | 160 +/− 10 μg/hr-cm^2 | 
Water | 110 +/− 10 μg/hr-cm^2 | 6800 ± 400 | 160 +/− 20 μm/hr | 320 +/− 20 μg/hr-cm^2 | 70 +/− 10 μg/cm^2
